Test results reported in US20260306488A1, “FUNCTIONAL PROTECTIVE AGENT FOR ORGAN OR TISSUE” (TOHOKU UNIVERSITY, priority 2023, published 2026).

Tests used:
[1] = tested on: diabetes model mouse (db/db mouse); assay: Plasma creatinine, phenyl sulfate and Ac6Lys in diabetes model mouse; assay type: in vivo, mouse (BKS-db/db)
Description: (§1) Next, in order to confirm that the present compound protects kidney function and liver function in a diabetes model, cGP was administered to a diabetes model mouse (db/db mouse) to analyze blood concentrations of two uremic substances (creatinine and phenyl sulfate), as well as a blood concentration of a factor leading to renal failure in a patient with type 1 diabetes (N6-acetyllysine [Ac6Lys]), and additionally, pathological tissues of liver and blood concentrations of three liver function markers (ALT, AST, and γGTP) and two lipids (total cholesterol and TG) were analyzed.
(§2) The analysis using a diabetes model mouse was performed according to the following procedures through:
[1] Wild-type mice (BKS-m+/m+ mice, purchased from Japan CLEA) having been fed a normal diet (CE-2, manufactured by Japan CLEA) were grouped into a wild-type normal diet group (n=5) to be fed the normal diet, and a wild-type cGP group (n=4) to be fed the normal diet containing cGP. Besides, diabetes model mice (BKS-db/db mice; purchased from Japan CLEAR) having been fed the normal diet were grouped into a diabetes model normal diet group (n=4) to be fed the normal diet, and a diabetes model cGP group (n=4) to be fed the normal diet containing cGP. Blood samples were harvested from the diabetes model cGP group, and plasma samples (referred to as the “plasma samples after 0-week feeding”) were prepared according to a usual method.
[2] After feeding the mice for 6 weeks, blood samples were harvested from the above four groups (the wild-type normal diet group, the wild-type cGP group, the diabetes model normal diet group, and the diabetes model cGP group), plasma samples (referred to as the “plasma samples after 6-week feeding”) were prepared according to a usual method, and then, liver tissues were harvested, fixed in 10% neutral-buffered formalin, and embedded in paraffin, and the resultant paraffin-embedded liver tissues were sliced to prepare liver tissue sections.
[3] The thus obtained “plasma samples after 0-week feeding” and “plasma samples after 6-week feeding” were used to measure blood concentrations of the three substances (creatinine, phenyl sulfate, and Ac6Lys) (see FIGS. 5 and 6), and blood concentrations of three liver function markers (ALT, AST, and γGTP) and two lipids (total cholesterol and TG) by mass spectrometry using LC-MS/MS (manufactured by Shimadzu Corporation). Besides, the liver tissue sections prepared as described above were used to perform analysis by Hematoxylin and Eosin (HE) staining method according to a usual method (see FIG. 4).

[2] = tested on: diabetes model mouse (db/db mouse); assay: Plasma uremic substances (m1A and TMAO) in diabetes model mouse; assay type: in vivo, mouse (BKS-db/db); conditions: diabetes model cGP group (cGP in diet) vs diabetes model normal diet group, after 5-week feeding, Unpaired t-test p<0.01
Description: Next, in order to confirm that the present compound reduces chronic inflammation and resulting cellular damage, and prevents vascular complication in a diabetes model, cGP was administered to a diabetes model mouse (db/db mouse) to analyze blood concentrations of two uremic substances (1-methyladenosine [m1A] and trimethylamine-N-oxide [TMAO]).
as §2
[1] Diabetes model mice (BKS-db/db mice, purchased from Japan CLEA) having been fed a normal diet (CE-2, manufactured by Japan CLEA) were grouped into a diabetes model normal diet group (n=10) to be fed the normal diet, and a diabetes model cGP group (n=10) to be fed the normal diet containing cGP.
[2] After feeding the mice for 5 weeks, blood samples were harvested from the above two groups (the diabetes model normal diet group, and the diabetes model cGP group), and plasma samples were prepared according to a usual method.
[3] The thus prepared plasma samples were used to measure blood concentrations of two uremic substances (m1A and TMAO) by mass spectrometry using LC-MS/MS (manufactured by Shimadzu Corporation) (see FIG. 7).

[3] = tested on: adenine-fed renal failure model mouse; assay: Kidney tissue analysis by Masson's Trichrome Staining in adenine-fed renal failure model mouse (ratio of renal tubules); assay type: in vivo, mouse (male C57BL/6); conditions: adenine-fed cGP group (0.0025% cGP in diet) vs adenine-fed control group; FIG. 2A, Dunnett's test p<0.01; FIG. 2 legend says after 2-week feeding, method says tissue harvested at 3 weeks
Description: (§3) In order to confirm that a present compound has an effect of protecting kidney function and liver function in a renal failure model, 2,5-diketopiperazine (cGP; see Table 1) encompassed in the present compound was used for performing analysis in which the cGP is administered to a model mouse with chronic renal failure induced by feeding adenine (hereinafter referred to as the “adenine-fed renal failure model mouse”) to analyze the blood concentration of a uremic substance (creatinine), that is, an indicator of kidney function, and a ratio of renal tubules, as well as to analyze blood concentrations of three liver function markers (ALT, AST, and γGTP) and two lipids (total cholesterol and TG). The adenine-fed renal failure model mouse is a mouse that develops kidney damage because fed adenine crystallizes as insoluble 2,8-dihydroxyadenine in the renal tubules (Cozzolino, M. et al. Kidney Int. 64, 441-450 (2003), Tamagaki, K. et al. Nephrol. Dial. Transplant 21, 651-659 (2006)).
(§4) The analysis using an adenine-fed renal failure model mouse was performed according to the following procedures through:
(§5) [1] 8-Week old male C57BL/6 mice (purchased from Japan CLEA) were grouped into a normal diet group (n=6) to be fed a normal diet (CE-2, manufactured by Japan CLEA), and an adenine-fed group (n=12) to be fed the normal diet containing 0.2% adenine (manufactured by Wako).
[2] […]

[4] = tested on: adenine-fed renal failure model mouse; assay: Plasma markers (creatinine, ALT, total cholesterol) in adenine-fed renal failure model mouse; assay type: in vivo, mouse (male C57BL/6); conditions: plasma samples after 2-week feeding
Description: as §3, §4, §5
[2] After feeding the mice for 6 weeks, the adenine-fed group was grouped into an adenine-fed control group (n=6) to be fed the normal diet, and an adenine-fed cGP group (n=6) to be fed the normal diet containing cGP. The normal diet containing cGP was prepared by mixing cGP (manufactured by Bachem) with the normal diet to a final concentration of 0.0025%.
[3] After feeding the mice for 2 weeks, blood samples were harvested from each of the three groups (the normal diet group, the adenine-fed control group, and the adenine-fed cGP group) to prepare plasma samples (referred to as “plasma samples after 2-week feeding”) according to a usual method.
[4] […]

[5] = tested on: diabetes model mouse (db/db mouse); assay: Liver tissue analysis by HE staining in diabetes model mouse; assay type: in vivo, mouse (BKS-db/db); conditions: diabetes model cGP group (cGP in diet) vs diabetes model normal diet group; after 6-week feeding; FIG. 4
Description: as §1, §2
[1] Wild-type mice (BKS-m+/m+ mice, purchased from Japan CLEA) having been fed a normal diet (CE-2, manufactured by Japan CLEA) were grouped into a wild-type normal diet group (n=5) to be fed the normal diet, and a wild-type cGP group (n=4) to be fed the normal diet containing cGP. Besides, diabetes model mice (BKS-db/db mice; purchased from Japan CLEAR) having been fed the normal diet were grouped into a diabetes model normal diet group (n=4) to be fed the normal diet, and a diabetes model cGP group (n=4) to be fed the normal diet containing cGP. […]

For `O=C1NCC(=O)N2CCCC12` (centres unmarked) [cGP, cyclo-glycyl-proline], the “creatinine concentration in plasma” value ([1]; diabetes model cGP group (cGP in diet) vs diabetes model normal diet group, plasma samples after 6-week feeding, FIG. 5, Dunnett's test) was “significantly decreased”, the “blood concentration of creatinine, week 6 vs week 0” value ([1]; diabetes model cGP group (cGP in diet), week 6 after feeding compared to week 0, FIG. 6A, Paired t-test p<0.05) was “significantly lower” and the “blood concentration of phenyl sulfate, week 6 vs week 0” value ([1]; diabetes model cGP group (cGP in diet), week 6 after feeding compared to week 0, FIG. 6B, Paired t-test p<0.05) was “significantly lower”. For the same compound, the “blood concentration of N6-acetyllysine (Ac6Lys), week 6 vs week 0” value ([1]; diabetes model cGP group (cGP in diet), week 6 after feeding compared to week 0, FIG. 6C, Paired t-test p<0.05) was “significantly lower”, the “m1A (1-methyladenosine) concentration in plasma” value ([2]; FIG. 7A) was “significantly reduced” and the “TMAO (trimethylamine-N-oxide) concentration in plasma” value ([2]; FIG. 7B) was “significantly reduced”. For the same compound, the “ratio of renal tubules in the renal cortex” value [3] was “significantly increased”, the “ALT concentration in plasma” value ([4]; adenine-fed cGP group (0.0025% cGP in diet) vs adenine-fed control group, FIG. 3A, Dunnett's test p<0.05) was “significantly decreased” and the “total cholesterol concentration in plasma” value ([4]; adenine-fed cGP group (0.0025% cGP in diet) vs adenine-fed control group, FIG. 3B, Dunnett's test p<0.05) was “significantly decreased”. For the same compound, the “creatinine concentration in plasma” value ([4]; adenine-fed cGP group (normal diet containing 0.0025% cGP) vs adenine-fed control group, FIG. 1, Dunnett's test) was “significantly decreased” and the “fat droplets in the liver” value [5] was “reduced”.
